Experimental data from patent US12540141B2, “Spiropyrrolidine derived antiviral agents” (priority 2020, dated 2026).

Biological target: SARS-CoV-2 3CL-protease (Severe acute respiratory syndrome coronavirus 2, UniProt P0DTD1)
Assay: SARS-CoV-2 3C-Like (3CL) Protease Fluorescence Assay (FRET)
Type: biochemical
Conditions: SARS-CoV-2 3CL-protease 10 nM, 30 min preincubation at RT, substrate 40 μM

CN(C(=O)Cc1ccccn1)[C@@H](CC(C)(C)F)C(=O)N1C[C@]2(C[C@H]1C#N)C(=O)Nc1ccc(Cl)cc12 [Example 483] and CN(C(=O)CCN1CCC1)[C@@H](CC(C)(C)F)C(=O)N1C[C@]2(C[C@H]1C#N)C(=O)Nc1ccccc12 [Example 540] cannot be ordered by IC50: less than 100 nM for the first, less than 100 nM for the second.

CC(C)C[C@@H](C(=O)N1C[C@]2(C[C@H]1C#N)C(=O)Nc1ccccc12)N(C)C(=O)c1cccc(-c2ccccc2F)c1 [Example 264] and CC(C)C[C@@H](C(=O)N1C[C@]2(C[C@H]1C#N)C(=O)Nc1ccccc12)N(C)C(=O)c1ccc(F)c(-c2ccccc2)c1 [Example 272] fall in the same range of IC50: 100 to 1000 nM for the first, 100 to 1000 nM for the second.

Going from CC(C)(C)OC(=O)NC[C@H](NC(=O)c1cc2c(F)cc(F)cc2[nH]1)C(=O)N1C[C@]2(C[C@H]1C#N)C(=O)Nc1ccccc12 [Example 128] to CCCOC[C@@H](C(=O)N1C[C@]2(C[C@H]1C#N)C(=O)Nc1ccccc12)N(C)C(=O)c1cc2c(F)cc(F)cc2[nH]1 [Example 413, N—((S)-1-((3R,5′S)-5′-cyano-2-oxospiro[indoline-3,3′-pyrrolidin]-1′-yl)-1-oxo-3-propoxypropan-2-yl)-4,6-difluoro-N-methyl-1H-indole-2-carboxamide], the IC50 falls from greater than 1000 nM to less than 100 nM.

First: CC(C)C[C@@H](C(=O)N1C[C@]2(C[C@H]1C#N)C(=O)Nc1ccccc12)N(C)C(=O)c1ccc2c(c1)OC(F)(F)O2 [Example 190]
Second: CC(C)C[C@@H](C(=O)N1C[C@]2(C[C@H]1C#N)C(=O)Nc1ccccc12)N(C)C(=O)c1ccc(Cl)c(Cl)c1 [Example 166]
The IC50 of the first is higher: 100 to 1000 nM for the first, less than 100 nM for the second.

Compared with CC(C)C[C@@H](C(=O)N1C[C@]2(C[C@H]1C#N)C(=O)Nc1ccccc12)N(C)C(=O)c1cccc2cccnc12 [Example 296], CC(C)C[C@@H](C(=O)N1C[C@]2(C[C@H]1C#N)C(=O)Nc1ccccc12)N(C)C(=O)c1ccc2ncccc2n1 [Example 303] is lower in IC50: 100 to 1000 nM for the first, less than 100 nM for the second. The second is the more potent here.

CC(C)C[C@@H](C(=O)N1C[C@]2(C[C@H]1C#N)C(=O)Nc1ccc(-c3ccncc3)cc12)N(C)C(=O)c1cc2c(F)cc(F)cc2[nH]1 [Example 510] and CC(C)C[C@@H](C(=O)N1C[C@]2(C[C@H]1C#N)C(=O)Nc1ccc(C#C[Si](C)(C)C)cc12)N(C)C(=O)c1cc2c(F)cc(F)cc2[nH]1 [Example 509] cannot be ordered by IC50: less than 100 nM for the first, less than 100 nM for the second.

CC(C)C[C@@H](C(=O)N1C[C@]2(C[C@H]1C#N)C(=O)Nc1ccccc12)N(C)C(=O)[C@H](c1cn(C)nn1)C(C)C [Example 351] and CC(C)C[C@@H](C(=O)N1C[C@]2(C[C@H]1C#N)C(=O)Nc1ccccc12)N(C)C(=O)c1cnn(C(C)(C)C)c1 [Example 352] cannot be ordered by IC50: less than 100 nM for the first, less than 100 nM for the second.

CC(C)(C)C[C@H](NC(=O)c1cc(OC(F)(F)F)c2ncccc2c1)C(=O)N1C[C@]2(C[C@H]1C#N)C(=O)Nc1ccccc12 [Example 137] and [2H]C([2H])([2H])N(C(=O)c1cc(OC(F)(F)F)c2ncccc2c1)[C@@H](CC(C)(C)C)C(=O)N1C[C@]2(C[C@H]1C#N)C(=O)Nc1ccccc12 [Example 382] cannot be ordered by IC50: less than 100 nM for the first, less than 100 nM for the second.

N#C[C@@H]1C[C@@]2(CN1C(=O)[C@H](CN1CCCC1=O)NC(=O)OCc1ccccc1)C(=O)Nc1ccccc12 [Example 548, benzyl ((S)-1-((3R,5′S)-5′-cyano-2-oxospiro[indoline-3,3′-pyrrolidin]-1′-yl)-1-oxo-3-(2-oxopyrrolidin-1-yl)propan-2-yl)carbamate] and C[C@@H](CC(=O)N[C@@H](CC(C)(C)C)C(=O)N1C[C@]2(C[C@H]1C#N)C(=O)Nc1ccccc12)NC(=O)OCc1ccccc1 [Example 130] fall in the same range of IC50: 100 to 1000 nM for the first, 100 to 1000 nM for the second.

First: CC(C)C[C@@H](C(=O)N1C[C@]2(C[C@H]1C#N)C(=O)Nc1ccccc12)N(C)C(=O)C[C@@H](Cc1cc(F)c(F)cc1F)NC(=O)OC(C)(C)C [Example 289]
Second: CC(C)C[C@@H](C(=O)N1C[C@]2(C[C@H]1C#N)C(=O)Nc1ccccc12)N(C)C(=O)c1ccc2c(F)cc(F)cc2n1 [Example 290]
The IC50 of the first is lower: less than 100 nM for the first, 100 to 1000 nM for the second.

First: CC(C)C[C@@H](C(=O)N1C[C@]2(C[C@H]1C#N)C(=O)Nc1ccccc12)N(C)C(=O)c1cc2nccnc2[nH]1 [Example 490]
Second: CC(C)C[C@@H](C(=O)N1C[C@]2(C[C@H]1C#N)C(=O)Nc1ccccc12)N(C)C(=O)c1ccn[nH]1 [Example 202]
The IC50 of the first is lower: less than 100 nM for the first, 100 to 1000 nM for the second. The first is the more potent here.

CC(C)C[C@@H](C(=O)N1C[C@]2(C[C@H]1C=O)C(=O)Nc1ccccc12)N(C)C(=O)c1cc2c(F)cc(F)cc2[nH]1 [Example 149] and CC(C)C[C@@H](C(=O)N1C[C@]2(C[C@H]1C#N)C(=O)Nc1ccc(NC(=O)C3(F)CC3)cc12)N(C)C(=O)c1cc2c(F)cc(F)cc2[nH]1 [Example 504, N—((S)-1-((3R,5′S)-5′-cyano-5-(1-fluorocyclopropane-1-carboxamido)-2-oxospiro[indoline-3,3′-pyrrolidin]-1′-yl)-4-methyl-1-oxopentan-2-yl)-4,6-difluoro-N-methyl-1H-indole-2-carboxamide] cannot be ordered by IC50: less than 100 nM for the first, less than 100 nM for the second.

CC(C)C[C@@H](C(=O)N1C[C@]2(C[C@H]1C#N)C(=O)Nc1ccccc12)N(C)C(=O)c1ccnc2cccc(F)c12 [Example 306] and CC(C)C[C@@H](C(=O)N1C[C@]2(C[C@H]1C#N)C(=O)Nc1ccccc12)N(C)C(=O)c1ccnc2ccc(F)cc12 [Example 305] cannot be ordered by IC50: less than 100 nM for the first, less than 100 nM for the second.

CC(C)C[C@@H](C(=O)N1C[C@]2(C[C@H]1C#N)C(=O)Nc1ccccc12)N(C)C(=O)c1cc(-c2ccccc2)ccc1Cl [Example 262] and CC(C)C[C@@H](C(=O)N1C[C@]2(C[C@H]1C#N)C(=O)Nc1ccccc12)N(C)C(=O)c1cccc(-c2ccc(C#N)cc2)c1 [Example 265] fall in the same range of IC50: 100 to 1000 nM for the first, 100 to 1000 nM for the second.

Going from CN(C(=O)CCCN1CCOCC1)[C@@H](CC(C)(C)F)C(=O)N1C[C@]2(C[C@H]1C#N)C(=O)Nc1ccccc12 [Example 538] to CN(C(=O)CCN1CCOCC1)[C@@H](CC(C)(C)F)C(=O)N1C[C@]2(C[C@H]1C#N)C(=O)Nc1ccccc12 [Example 537], the IC50 falls from greater than 1000 nM to less than 100 nM. The second is the more potent here.

First: CC(C)C[C@@H](C(=O)N1C[C@]2(C[C@H]1C#N)C(=O)Nc1ccccc12)N(C)C(=O)C#Cc1ccccc1 [Example 248]
Second: CC(C)C[C@@H](C(=O)N1C[C@]2(C[C@H]1C#N)C(=O)Nc1ccccc12)N(C)C(=O)c1nc2ccccc2[nH]1 [Example 205]
The IC50 of the first is higher: 100 to 1000 nM for the first, less than 100 nM for the second.

COc1ccc(C(=O)N(C)[C@@H](CC(C)C)C(=O)N2C[C@]3(C[C@H]2C#N)C(=O)Nc2ccccc23)cc1C(F)(F)F [Example 181] and CC(C)C[C@@H](C(=O)N1C[C@]2(C[C@H]1C#N)C(=O)Nc1ccccc12)N(C)C(=O)c1cc2ccc(C(F)(F)F)cc2[nH]1 [Example 331] cannot be ordered by IC50: less than 100 nM for the first, less than 100 nM for the second.

CN(C(=O)c1nc2cccnc2[nH]1)[C@@H](CC1CC1)C(=O)N1C[C@]2(C[C@H]1C#N)C(=O)Nc1ccc(Cl)cc12 [Example 463] and N#C[C@@H]1C[C@@]2(CN1C(=O)[C@H](CC1CC1)NC(=O)c1cccc(OC(F)(F)F)c1)C(=O)Nc1ccc(Cl)cc12 [Example 520] cannot be ordered by IC50: less than 100 nM for the first, less than 100 nM for the second.

[2H]C([2H])([2H])N(C(=O)c1cn(CC(F)(F)F)nc1C1CC1)[C@@H](CC1CC1)C(=O)N1C[C@]2(C[C@H]1C#N)C(=O)Nc1ccccc12 [Example 401] and [2H]C([2H])([2H])N(C(=O)c1cn(C(C)(C)C)nn1)[C@@H](CCCC)C(=O)N1C[C@]2(C[C@H]1C#N)C(=O)Nc1ccccc12 [Example 393] cannot be ordered by IC50: less than 100 nM for the first, less than 100 nM for the second.

CN(C(=O)c1ccn(C2CC2)n1)[C@@H](Cc1ccccc1)C(=O)N1C[C@]2(C[C@H]1C#N)C(=O)Nc1ccccc12 [Example 361] and CC(C)C[C@@H](C(=O)N1C[C@]2(C[C@H]1C#N)C(=O)Nc1ccccc12)N(C)C(=O)c1cc(Cl)c2nn(C3CC3)cc2c1 [Example 316] cannot be ordered by IC50: less than 100 nM for the first, less than 100 nM for the second.

CC(C)C[C@@H](C(=O)N1C[C@]2(C[C@H]1C#N)C(=O)Nc1ccccc12)N(C)C(=O)c1cc2cccnc2cc1OC(F)F [Example 253] and CC(C)C[C@@H](C(=O)N1C[C@]2(C[C@H]1C#N)C(=O)Nc1ccccc12)N(C)C(=O)c1cnc2cnccc2c1 [Example 301] cannot be ordered by IC50: less than 100 nM for the first, less than 100 nM for the second.

CC(C)(C)C[C@H](NC(=O)Nc1ccccc1)C(=O)N1C[C@]2(C[C@H]1C#N)C(=O)Nc1ccccc12 [Example 435] and CC(C)(C)C[C@H](NC(=O)Nc1ccc(F)cc1)C(=O)N1C[C@]2(C[C@H]1C#N)C(=O)Nc1ccccc12 [Example 441] fall in the same range of IC50: 100 to 1000 nM for the first, 100 to 1000 nM for the second.

CC(C)C[C@@H](C(=O)N1C[C@]2(C[C@H]1C#N)C(=O)Nc1ccccc12)N(C)C(=O)c1cc(Cl)c2[nH]c(C3CC3)nc2c1 [Example 256] and Cc1cc2cc(C(=O)N(C)[C@@H](CC(C)C)C(=O)N3C[C@]4(C[C@H]3C#N)C(=O)Nc3ccccc34)cc(OC3CC3)c2nc1C [Example 323] cannot be ordered by IC50: less than 100 nM for the first, less than 100 nM for the second.

CC(C)C[C@@H](C(=O)N1C[C@]2(C[C@H]1C#N)C(=O)Nc1ncccc12)N(C)C(=O)c1cc2c(F)cc(F)c(F)c2[nH]1 [Example 550] and CN(C(=O)c1cc2c(F)cc(F)c(F)c2[nH]1)[C@@H](CC(C)(C)F)C(=O)N1C[C@]2(C[C@H]1C#N)C(=O)Nc1cccnc12 [Example 552] cannot be ordered by IC50: less than 100 nM for the first, less than 100 nM for the second.

CC(C)C[C@@H](C(=O)N1C[C@]2(C[C@H]1C#N)C(=O)Nc1ccccc12)N(C)C(=O)c1cc2ccc(=O)[nH]c2cc1OC1CC1 [Example 254] and COc1ccc2[nH]c(C(=O)N(C)[C@@H](CC(C)C)C(=O)N3C[C@]4(C[C@H]3C#N)C(=O)Nc3ccccc34)nc2c1 [Example 249] cannot be ordered by IC50: less than 100 nM for the first, less than 100 nM for the second.

First: CC(C)(C)C[C@H](NC(=O)c1cn(CC(F)(F)F)nn1)C(=O)N1C[C@]2(C[C@H]1C#N)C(=O)Nc1ccccc12 [Example 143]
Second: CN(C(=O)C(F)(F)F)[C@@H](CC(C)(C)C)C(=O)N1C[C@]2(C[C@H]1C#N)C(=O)Nc1ccccc12 [Example 374]
The IC50 of the first is lower: less than 100 nM for the first, 100 to 1000 nM for the second.

CC(C)C[C@@H](C(=O)N1C[C@]2(C[C@H]1C#N)C(=O)Nc1ccccc12)N(C)C(=O)c1cccc(F)c1Cl [Example 164] and CC(C)C[C@H](NC(=O)c1cc2c(F)cccc2[nH]1)C(=O)N1C[C@]2(C[C@H]1C#N)C(=O)Nc1c(Cl)cccc12 [Example 533] cannot be ordered by IC50: less than 100 nM for the first, less than 100 nM for the second.

Molecule CCCC[C@H](NC(=O)c1cnn(C(C)(C)C)c1)C(=O)N1C[C@]2(C[C@H]1C#N)C(=O)Nc1ccccc12 [Example 131] has an IC50 of less than 100 nM.
